Experimental data as given in ChEMBL document CHEMBL1149998, “Tannins as selective inhibitors of protein kinase C” (Bioorg Med Chem Lett, 1992).

What was measured:
[1] = target: Protein kinase C (PKC); test: Inhibitory activity against protein kinase C (PKC); format: protein assay, Homo sapiens
[2] = target: Protein kinase C, PKC; classical/novel (Homo sapiens) (UniProt O94806+P17252+P05129+Q05655+P05771+Q02156+P24723+Q15139+Q04759); test: Displacement of phorbol [3H]PDBu from protein kinase C; A - Did displace phorbol (PDBu) at 50 uM or less; format: protein assay
[3] = Inhibition of c-AMP kinase PKA; design: species or system Bos taurus
[4] = Inhibitory activity against c-AMP kinase; Did not inhibit c-AMP kinase

| IC50 [1] [µM] | Phorbol displacement [2] [µM] | IC50 [3] [µM] | IC50 [4] | Structure (SMILES) |
| --- | --- | --- | --- | --- |
| 16 | < 50 | 65 | – | O=C1O[C@H]2[C@@H]3OC(=O)c4cc(O)c(O)c(O)c4-c4c(cc(Oc5c(C(=O)O)cc(O)c(O)c5O)c(O)c4O)C(=O)OC[C@H]2O[C@@H](OC(=O)c2cc(O)c(O)c(O)c2)[C@@H]3OC(=O)c2cc(O)c(O)c3c2C2C1=CC(=O)C(O)(O)C2(O)O3 (some centres undefined) [E181] |
| 2 | < 50 | – | Not Active | O=C(OC1Cc2c(O)cc(O)c([C@H]3c4c(O)cc(O)c([C@H]5c6c(O)cc(O)cc6O[C@H](c6ccc(O)c(O)c6)[C@@H]5OC(=O)c5cc(O)c(O)c(O)c5)c4O[C@H](c4ccc(O)c(O)c4)C3OC(=O)c3cc(O)c(O)c(O)c3)c2O[C@@H]1c1ccc(O)c(O)c1)c1cc(O)c(O)c(O)c1 (some centres undefined) |
| 4 | < 50 | – | Not Active | O=C(O[C@@H]1[C@@H](c2c(O)cc(O)c3c2O[C@H](c2ccc(O)c(O)c2)[C@H](OC(=O)c2cc(O)c(O)c(O)c2)C3)c2c(O)cc(O)cc2O[C@@H]1c1ccc(O)c(O)c1)c1cc(O)c(O)c(O)c1 |
| 30 | < 50 | – | Not Active | Oc1cc(O)c2c(c1)O[C@@]1(c3ccc(O)c(O)c3)Oc3cc(O)c4c(c3C2[C@H]1O)O[C@H](c1ccc(O)c(O)c1)[C@H](O)C4c1c(O)cc(O)c2c1O[C@H](c1ccc(O)c(O)c1)[C@H](O)C2 (some centres undefined) |
| 4 | < 50 | 44 | – | O=C1OCC2OC(=O)c3cc(O)c(O)c(O)c3-c3c(O)c(O)c(O)c4c3C(=O)OC(C2OC(=O)c2cc(O)c(O)c(O)c2-c2c1cc(O)c(O)c2O)C1OC(=O)C2C4=C(O)C(=O)C23Oc2cc(O)c4c(c2[C@H]13)O[C@H](c1ccc(O)c(O)c1)[C@@H](O)C4 (some centres undefined) |
| 4 | < 50 | – | Not Active | O=C(O[C@@H]1O[C@@H]2COC(=O)c3cc(O)c(O)c(O)c3-c3c(cc(O)c(O)c3O)C(=O)O[C@H]([C@H]1OC(=O)c1cc(O)c(O)c(O)c1)[C@@H]2OC(=O)c1cc(O)c(O)c(O)c1)c1cc(O)c(O)c(O)c1 [PUNICAFOLIN] |
| 11 | < 50 | 84 | – | O=C(OC1COC(=O)c2cc(O)c(O)c(O)c2-c2c(cc(O)c(O)c2O)C(=O)OC1C1OC(=O)c2cc(O)c(O)c(O)c2-c2c(O)c(O)c(O)c3c2C(=O)OC1[C@@H]3O)c1cc(O)c(O)c(O)c1 (some centres undefined) |
| 64 | < 50 | – | Not Active | O=C(O[C@@H]1C[C@](OC(=O)c2cc(O)c(O)c(O)c2)(C(=O)O)C[C@@H](OC(=O)c2cc(O)c(O)c(O)c2)[C@H]1OC(=O)c1cc(O)c(O)c(O)c1)c1cc(O)c(O)c(O)c1 |
| 82 | < 50 | – | Not Active | O=C(OC[C@H]1O[C@@H](O)[C@H](OC(=O)c2cc(O)c(O)c(O)c2)[C@@H](OC(=O)c2cc(O)c(O)c(O)c2)[C@@H]1OC(=O)c1cc(O)c(O)c(O)c1)c1cc(O)c(O)c(O)c1 |
| 20 | < 50 | 100 | – | O=C(O[C@@H]1O[C@@H]2COC(=O)c3cc(Oc4c(C(=O)O)cc(O)c(O)c4O)c(O)c(O)c3-c3c(cc(O)c(O)c3O)C(=O)O[C@H]([C@H]1O)[C@@H]2O)c1cc(O)c(O)c(O)c1 |

More lines, now with the values behind:

| Structure (SMILES) | IC50 [1] [µM] | Phorbol displacement [2] [µM] | IC50 [3] [µM] | IC50 [4] |
| --- | --- | --- | --- | --- |
| O=C(O[C@@H]1O[C@H]2COC(=O)c3cc(O)c(O)c(O)c3-c3c(cc(O)c(O)c3O)C(=O)O[C@H]2[C@@H]2OC(=O)c3cc(O)c(O)c(O)c3-c3c(cc(O)c(O)c3O)C(=O)O[C@H]12)c1cc(O)c(O)c(Oc2c(O)c(O)c(O)c3c2C(=O)O[C@H]2[C@@H]4OC(=O)c5cc(O)c(O)c(O)c5-c5c(cc(O)c(O)c5O)C(=O)O[C@@H]4[C@H](OC(=O)c4cc(O)c(O)c(Oc5c(O)c(O)c(O)c6c5C(=O)O[C@H]5[C@@H]7OC(=O)c8cc(O)c(O)c(O)c8-c8c(cc(O)c(O)c8O)C(=O)O[C@@H]7[C@H](OC(=O)c7cc(O)c(O)c(Oc8c(O)c(O)c(O)c9c8C(=O)O[C@H]8[C@@H]%10OC(=O)c%11cc(O)c(O)c(O)c%11-c%11c(cc(O)c(O)c%11O)C(=O)O[C@@H]%10[C@H](OC(=O)c%10cc(O)c(O)c(O)c%10)O[C@H]8COC(=O)c8cc(O)c(O)c(O)c8-9)c7)O[C@H]5COC(=O)c5cc(O)c(O)c(O)c5-6)c4)O[C@H]2COC(=O)c2cc(O)c(O)c(O)c2-3)c1 | 10 | < 50 | 22 | – |
| O=C(O[C@H]1[C@H](O)C[C@](OC(=O)c2cc(O)c(O)c(O)c2)(C(=O)O)C[C@H]1OC(=O)c1cc(O)c(O)c(O)c1)c1cc(O)c(O)c(O)c1 | > 100 | < 50 | – | Not Active |
| O=C(OC1Cc2c(O)cc(O)cc2O[C@@H]1c1ccc(O)c(O)c1)c1cc(O)c(O)c(O)c1 (some centres undefined) | 48 | < 50 | – | Not Active |
| O=C1OCC2OC(=O)c3cc(O)c(O)c(O)c3-c3c(O)c(O)c(O)c4c3C(=O)OC(C2OC(=O)c2cc(O)c(O)c(O)c2-c2c1cc(O)c(O)c2O)C1OC(=O)c2c-4c(O)c(O)c(O)c2[C@@H]1c1c(O)cc(O)c2c1O[C@H](c1ccc(O)c(O)c1)[C@@H](O)C2 (some centres undefined) | 7 | < 50 | 95 | – |
| O=C(O[C@@H]1O[C@H]2COC(=O)c3cc(O)c(O)c(O)c3-c3c(cc(O)c(O)c3O)C(=O)O[C@H]2[C@@H]2OC(=O)c3cc(O)c(O)c(O)c3-c3c(cc(O)c(O)c3O)C(=O)O[C@H]12)c1cc(O)c(O)c(Oc2c(O)c(O)c(O)c3c2C(=O)O[C@H]2[C@@H]4OC(=O)c5cc(O)c(O)c(O)c5-c5c(cc(O)c(O)c5O)C(=O)O[C@@H]4[C@H](OC(=O)c4cc(O)c(O)c(O)c4)O[C@H]2COC(=O)c2cc(O)c(O)c(O)c2-3)c1 | 5 | < 50 | 48 | – |
| O=C(OC[C@@H]1O[C@@H](OC(=O)c2cc(O)c(O)c(O)c2)[C@@H](OC(=O)c2cc(O)c(O)c(O)c2)[C@@H](OC(=O)c2cc(O)c(O)c(O)c2)[C@@H]1OC(=O)c1cc(O)c(O)c(O)c1Oc1cc2c(c(O)c1O)-c1c(cc(O)c(O)c1O)C(=O)OC[C@@H]1O[C@@H](OC(=O)c3cc(O)c(O)c(O)c3)[C@@H](OC(=O)c3cc(O)c(O)c(O)c3)[C@@H](OC(=O)c3cc(O)c(O)c(O)c3)[C@@H]1OC2=O)c1cc(O)c(O)c(O)c1 | 3 | < 50 | 32 | – |
| O=C1OCC2OC(=O)c3cc(O)c(O)c(O)c3-c3c(O)c(O)c(O)c4c3C(=O)OC(C2OC(=O)c2cc(O)c(O)c(O)c2-c2c1cc(O)c(O)c2O)C1OC(=O)c2c-4c(O)c(O)c(O)c2[C@@H]1O (some centres undefined) | 4 | < 50 | – | Not Active |
| O=C1O[C@H]2[C@H](OC(=O)c3cc(O)c(O)c(O)c3)[C@@H](OC(=O)c3cc(O)c(O)c4c3C3C1=CC(=O)C(O)(O)C3(O)O4)[C@@H](OC(=O)c1cc(O)c(O)c(O)c1)O[C@@H]2COC(=O)c1cc(O)c(O)c(O)c1 (some centres undefined) | 16 | < 50 | – | Not Active |
